Source: patent US9732103B2 (priority 2014, dated 2017)

Molecular target: Human factor D (Homo sapiens (Human), UniProt P00746)
Format: biochemical
Details: not given

Sequence of Human factor D (P00746 26-253 limits assumed): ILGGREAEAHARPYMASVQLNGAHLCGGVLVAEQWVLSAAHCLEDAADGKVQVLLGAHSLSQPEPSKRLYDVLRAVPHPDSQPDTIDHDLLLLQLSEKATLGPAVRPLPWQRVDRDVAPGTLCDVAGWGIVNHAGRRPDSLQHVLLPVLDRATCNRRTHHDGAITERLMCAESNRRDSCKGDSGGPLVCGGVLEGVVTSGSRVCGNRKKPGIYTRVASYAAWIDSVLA

Structure (SMILES)	IC50
CC(=O)c1cn(CC(=O)N2C[C@H](F)C[C@H]2C(=O)NCc2cccc(Cl)c2F)c2cc(OC(=O)NCc3cscn3)ccc12 [Compound 3, 3-acctyl-1-(2-((2S,4R)-2-(3-chloro-2-fluorobenzylcarbamoyl)-4-fluoropyrrolidin-1-yl)-2-oxoethyl)-1H-indol-6-yl thiazol-4-ylmethylcarbamate]	< 1000 nM
CC(=O)c1cn(CC(=O)N2C[C@H](F)C[C@H]2C(=O)NCc2cccc(Cl)c2F)c2ccc(OC(=O)NCCc3c[nH]cn3)cc12 [Compound 15, 3-acctyl-1-(2-((2S,4R)-2-(3-chloro-2-fluorobenzylcarbamoyl)-4-fluoropyrrolidin-1-yl)-2-oxoethyl)-1H-indol-5-yl 2-(1H-imidazol-4-yl)ethylcarbamate]	< 1000 nM
CC(=O)c1cn(CC(=O)N2C[C@H](F)C[C@H]2C(=O)NCc2cccc(Cl)c2F)c2ccc(OC(=O)NC3CC3)cc12 [Compound 8, 3-acetyl-1-(2-((2S,4R)-2-(3-chloro-2-fluorobenzylcarbamoyl)-4-fluoropyrrolidin-1-yl)-2-oxoethyl)-1H-indol-5-yl cyclopropylcarbamate]	< 1000 nM
CC(=O)c1cn(CC(=O)N2C[C@H](F)C[C@H]2C(=O)NCc2cccc(Cl)c2F)c2ccc(OC(=O)NCc3ncccn3)cc12 [Compound 13, 3-acctyl-1-(2-((2S,4R)-2-(3-chloro-2-fluorobenzylcarbamoyl)-4-fluoropyrrolidin-1-yl)-2-oxoethyl)-1H-indol-5-yl pyrimidin-2-ylmethylcarbamate]	< 1000 nM
CC(=O)c1cn(CC(=O)N2C[C@H](F)C[C@H]2C(=O)NCc2cccc(Cl)c2F)c2cc(OC(=O)NCCc3nn[nH]n3)ccc12 [Compound 5, 3-acctyl-1-(2-((2S,4R)-2-(3-chloro-2-fluorobenzylcarbamoyl)-4-fluoropyrrolidin-1-yl)-2-oxoethyl)-1H-indol-6-yl 2-(2H-tetrazol-5-yl)ethylcarbamate]	< 1000 nM
CC(=O)c1cn(CC(=O)N2C[C@H](F)C[C@H]2C(=O)NCc2cccc(Cl)c2F)c2ccc(OC(=O)NCc3nnn[nH]3)cc12 [Compound 10, 3-acetyl-1-(2-((2S,4R)-2-(3-chloro-2-fluorobenzylcarbamoyl)-4-fluoropyrrolidin-1-yl)-2-oxoethyl)-1H-indol-5-yl (1H-tetrazol-5-yl)methylcarbamate]	< 1000 nM
CC(=O)c1cn(CC(=O)N2C[C@H](F)C[C@H]2C(=O)NCc2cccc(Cl)c2F)c2cc(OC(=O)NCc3ccc(B(O)O)cc3)ccc12 [Compound 7, 4-(((3-acetyl-1-(2-((2S,4R)-2-(3-chloro-2-fluorobenzylcarbamoyl)-4-fluoropyrrolidin-1-yl)-2-oxoethyl)-1H-indol-6-yloxy)carbonylamino)methyl)phenylboronic acid]	< 1000 nM
CC(=O)c1cn(CC(=O)N2C[C@H](F)C[C@H]2C(=O)NCc2cccc(Cl)c2F)c2ccc(OC(=O)NCc3cocn3)cc12 [Compound 9, 3-acctyl-1-(2-((2S,4R)-2-(3-chloro-2-fluorobenzylcarbamoyl)-4-fluoropyrrolidin-1-yl)-2-oxoethyl)-1H-indol-5-yl oxazol-4-ylmethylcarbamate]	< 1000 nM
CC(=O)c1cn(CC(=O)N2C[C@H](F)C[C@H]2C(=O)NCc2cccc(Cl)c2F)c2cc(C(=O)C[S+](C)[O-])ccc12 (stereo partly drawn) [Compound 11, (2S,4R)-1-(2-(3-acetyl-6-(2-(methylsulfinyl)acetyl)-1H-indol-1-yl)acetyl)-N-(3-chloro-2-fluorobenzyl)-4-fluoropyrrolidine-2-carboxamide]	< 1000 nM
CC(=O)c1cn(CC(=O)Oc2ccc3c(c2)c(C(C)=O)cn3CC(=O)N2C[C@H](F)C[C@H]2C(=O)NCc2cccc(Cl)c2F)c2ccc(O)cc12 [Compound 1, 3-acetyl-1-(2-((2S,4R)-2-(3-chloro-2-fluorobcnzylcarbamoyl)-4-fluoropyrrolidin-1-yl)-2-oxoethyl)-1H-indol-5-yl 2-(3-acctyl-5-hydroxy-1H-indol-1-yl)acctate]	< 1000 nM
CC(=O)c1cn(CC(=O)N2C[C@H](F)C[C@H]2C(=O)NCc2cccc(Cl)c2F)c2cc(OC(=O)NCCP(=O)(O)O)ccc12 [Compound 6, 2-((3-acctyl-1-(2-((2S,4R)-2-(3-chloro-2-fluorobenzylcarbamoyl)-4-fluoropyrrolidin-1-yl)-2-oxoethyl)-1H-indol-6-yloxy)carbonylamino) ethylphosphonic acid]	< 1000 nM
CC(=O)c1cn(CC(=O)N2C[C@H](F)C[C@H]2C(=O)NCc2cccc(Cl)c2F)c2ccc(OC(=O)N3CCOCC3)cc12 [Compound 12, 3-acetyl-1-(2-((2S,4R)-2-(3-chloro-2-fluorobenzylcarbamoyl)-4-fluoropyrrolidin-1-yl)-2-oxoethyl)-1H-indol-5-yl morpholine-4-carboxylate]	< 1000 nM
CC(=O)c1cn(CC(=O)N2C[C@H](F)C[C@H]2C(=O)NCc2cccc(Cl)c2F)c2ccc(OC(=O)NCCc3nn[nH]n3)cc12 [Compound 14, 3-acctyl-1-(2-((2S,4R)-2-(3-chloro-2-fluorobenzylcarbamoyl)-4-fluoropyrrolidin-1-yl)-2-oxoethyl)-1H-indol-5-yl 2-(2H-tetrazol-5-yl)ethylcarbamate]	< 1000 nM
CC(=O)c1cn(CC(=O)N2C[C@H](F)C[C@H]2C(=O)NCc2cccc(Cl)c2F)c2cc(OC(=O)NCc3nn[nH]n3)ccc12 [Compound 4, 3-acetyl-1-(2-((2S,4R)-2-(3-chloro-2-fluorobenzylcarbamoyl)-4-fluoropyrrolidin-1-yl)-2-oxoethyl)-1H-indol-6-yl (2H-tetrazol-5-yl)methylcarbamate]	< 1000 nM
CC(=O)c1cn(CC(=O)N2C[C@H](F)C[C@H]2C(=O)NCc2cccc(Cl)c2F)c2ccc(OC(=O)NCc3cscn3)cc12 [Compound 2, 3-acctyl-1-(2-((2S,4R)-2-(3-chloro-2-fluorobenzylcarbamoyl)-4-fluoropyrrolidin-1-yl)-2-oxoethyl)-1H-indol-5-yl thiazol-4-ylmethylcarbamate]	< 1000 nM

Same assay, conditions: factor D 80 nM, substrate Z-L-Lys-SBzl 100 μM, DTNB, pH 7.5

Structure (SMILES)	IC50
CC(=O)c1cn(CC(=O)N2C[C@H](F)C[C@H]2C(=O)NCc2cccc(Cl)c2F)c2ccc(OC(=O)N3CCNCC3)cc12 [Compound 16, 3-acetyl-1-(2-((2S,4R)-2-(3-chloro-2-fluorobenzylcarbamoyl)-4-fluoropyrrolidin-1-yl)-2-oxoethyl)-1H-indol-5-yl piperazine-1-carboxylate]	< 1000 nM
